From US8252781B2, “1,2-diazetidin-3-one derivatives and drugs containing same” (Kowa Company, Ltd., priority 2008, dated 2012)

Columns and labels:
Format in all cases: biochemical
[1] = biological target: T1, human 11β-HSD2 (Homo sapiens, UniProt P80365); assay: Enzyme inhibitory activity, human 11β-HSD2 (lysate of stably expressing HEK293 cells, cortisol by competitive ELISA); settings: Table 1; human 11β-HSD2, cell lysate, 37° C. for 1 hour; read-out: h HSD2 in vitro assay (IC50 uM)
T1 construct: The obtained PCR products of about 0.9 kbp, 1.2 kbp, and 0.9 kbp were subcloned into an expression vector pcDNA3.1+/Zeo; expressed in transfected cells
T1 sequence (P80365 1-405): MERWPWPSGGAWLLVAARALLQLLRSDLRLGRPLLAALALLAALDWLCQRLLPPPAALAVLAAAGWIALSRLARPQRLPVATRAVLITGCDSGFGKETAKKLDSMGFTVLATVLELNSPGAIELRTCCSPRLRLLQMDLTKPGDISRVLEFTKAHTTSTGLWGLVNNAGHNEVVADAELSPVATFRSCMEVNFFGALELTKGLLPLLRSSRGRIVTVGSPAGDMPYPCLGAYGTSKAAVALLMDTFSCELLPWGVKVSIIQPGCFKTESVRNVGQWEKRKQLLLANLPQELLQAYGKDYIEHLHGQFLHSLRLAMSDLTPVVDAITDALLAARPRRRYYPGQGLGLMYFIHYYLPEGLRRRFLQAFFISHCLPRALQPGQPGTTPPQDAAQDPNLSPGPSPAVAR
Procedure: 1. Human 11β-HSD1-, Human 11β-HSD2- and Mouse 11β-HSD1-Gene Clonings and Establishment of Stably Expressing Cells
Human 11β-HSD1-, human 11β-HSD2-, and mouse 11β-HSD1-gene clonings were conducted using as a template a reverse transcription product of human-liver RNA, human-kidney RNA (CELL APPLICATIONS), and mouse-kidney RNA respectively, by means of PCR cloning with reference to nucleotide sequences of Genbank Accession Nos. NM_005525, NM_000196, and NM_008288. The obtained PCR products of about 0.9 kbp, 1.2 kbp, and 0.9 kbp were subcloned into an expression vector pcDNA3.1+/Zeo (Invitrogen).
Human 11β-HSD1- and human 11β-HSD2-expressing vectors were transfected into human kidney-derived cell line, HEK293 cells, using a transfection reagent, jet PEI (Funakoshi). Mouse 11β-HSD1 was transfected to Chinese hamster ovary-derived cell line, CHO-K1 cells. Selection was conducted with 200-400 μg/mL of zeocine (Invitrogen) to provide stably expressing-cell clones. The stably expressing cells were suspended in buffer solution A (20 mmol/L Tris-HCl, pH 7.4, 250 mmol/L sucrose, 1 mmol/L EGTA, 1 mmol/L EDTA, 1 mmol/L MgCl2), sonicated, and then stored at −80° C.
2. Assay of Enzyme Inhibitory Activity
An enzymatic reaction was conducted using a polystyrene 96-well plate. Each well was added with 1 μL of a test agent dissolved in DMSO and then diluted (0.003 to 3 mmol/L), and further added with 10 μL of cell lysate diluted to a concentration of 0.1 mg/mL to 0.4 mg/mL. Next, 90 μL of buffer solution A containing substrate (100 nmol/L cortisone or cortisol) and coenzyme (400 μmol/L NADPH or NAD+) was added and the mixture was incubated at 37° C. for 1 hour. The enzymatic reaction was stopped by treating at 95° C. for 3 minutes. Cortisol that was present in the reaction solution was determined by a competitive ELISA shown below.
Anti-rabbit IgG antibody (Chemi-con) diluted to 2 μg/mL with carbonate buffer solution (pH 9.6) was added in 100 μL each to a 96-well immuno plate (Nunc) and immobilized by an incubation at 4° C. overnight. 50 μL of enzymatic reaction solution was put onto the plates, and further, anti-cortisol antibody (Cosmo Bio) and HRP-labeled cortisol (Cosmo Bio), diluted with buffer solution B (25 mmol/L Tris-HCl pH 7.4, 137 mmol/L NaCl, 2.68 mmol/L KCl), were added in 50 μL respectively and incubated at 4° C. overnight. After washed three times with buffer solution B containing 0.05% Tween 20, the plates were allowed to develop color by adding 100 μL of color reagent, TMB (Moss). The color reaction was stopped by 25 μL of 1 mol/L sulfuric acid and the absorbance was determined at 450 nm with a microplate reader (Molecular Device, VersaMax).
The values of human 11β-HSD1, human 11β-HSD2, and mouse 11β-HSD1 activities were subtracted from 100, and the resultant values were regarded as the respective 11β-HSD inhibition rates of example compounds. […] The comparison of human 11β-HSD1 and human 11β-HSD2 inhibiting activities is shown in Table 1, and the comparison of human 11β-HSD1 and mouse 11β-HSD1 inhibiting activities is shown in Table 2.

[2] = biological target: T2, human 11β-HSD1 (Homo sapiens, UniProt P28845); assay: Enzyme inhibitory activity, human 11β-HSD1 (lysate of stably expressing HEK293 cells, cortisol by competitive ELISA); settings: Table 1; human 11β-HSD1, cell lysate, 37° C. for 1 hour; read-out: h HSD1 in vitro assay (IC50 uM)
T2 construct: The obtained PCR products of about 0.9 kbp, 1.2 kbp, and 0.9 kbp were subcloned into an expression vector pcDNA3.1+/Zeo; expressed in transfected cells
T2 sequence (P28845 whole entry): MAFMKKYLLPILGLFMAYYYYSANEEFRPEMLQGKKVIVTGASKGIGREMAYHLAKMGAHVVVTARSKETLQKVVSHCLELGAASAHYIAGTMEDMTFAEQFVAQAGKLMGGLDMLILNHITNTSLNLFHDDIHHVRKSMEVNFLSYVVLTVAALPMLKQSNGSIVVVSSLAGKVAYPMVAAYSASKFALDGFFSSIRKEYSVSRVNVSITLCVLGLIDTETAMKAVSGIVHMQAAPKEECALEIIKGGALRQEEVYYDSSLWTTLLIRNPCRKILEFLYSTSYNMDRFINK
Procedure, shortened: (§1)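 Sonicated lysates of stably transfected cells (diluted to 0.1–0.4 mg/mL before addition) reacted for 1 h at 37 °C in pH 7.4 Tris/sucrose/EGTA/EDTA/MgCl2 buffer with 100 nmol/L cortisone or cortisol and 400 μmol/L NADPH or NAD+, then were heat-stopped at 95 °C. Inhibition rate = 100 minus residual activity.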

[3] = biological target: T3, mouse 11β-HSD1 (Mus musculus, UniProt P50172); assay: Enzyme inhibitory activity, mouse 11β-HSD1 (lysate of stably expressing CHO-K1 cells, cortisol by competitive ELISA); settings: Table 2; mouse 11β-HSD1, cell lysate, 37° C. for 1 hour; read-out: m HSD1 in vitro assay (IC50 uM)
T3 construct: The obtained PCR products of about 0.9 kbp, 1.2 kbp, and 0.9 kbp were subcloned into an expression vector pcDNA3.1+/Zeo; expressed in transfected cells
T3 sequence (P50172 whole entry): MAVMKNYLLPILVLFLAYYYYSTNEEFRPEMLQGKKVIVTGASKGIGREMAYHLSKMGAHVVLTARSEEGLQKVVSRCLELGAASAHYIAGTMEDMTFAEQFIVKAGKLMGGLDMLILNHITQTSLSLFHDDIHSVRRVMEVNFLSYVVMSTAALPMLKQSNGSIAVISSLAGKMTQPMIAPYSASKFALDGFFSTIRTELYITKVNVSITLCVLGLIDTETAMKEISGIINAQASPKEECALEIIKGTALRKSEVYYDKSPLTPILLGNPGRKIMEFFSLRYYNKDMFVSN
Procedure, shortened: as §1

| SMILES | IC50 [1] | IC50 [2] | IC50 [3] |
| --- | --- | --- | --- |
| CC1(C)C(=O)N(C2C3CC4CC(C3)CC2C4)N1C(=O)c1cccc2ccccc12 (stereo not shown) [Example 141, 4,4-dimethyl-1-(naphthalen-1-ylcarbonyl)-2-(adamantan-2-yl)-1,2-diazetidin-3-one] | 14 µM | 0.071 µM | – |
| CC1(C)C(=O)N(C2C3CC4CC(C3)CC2C4)N1c1ccccc1[N+](=O)[O-] (stereo not shown) [Example 188, 4,4-dimethyl-1-(2-nitrophenyl)-2-(adamantan-2-yl)-1,2-diazetidin-3-one] | > 30 µM | 0.082 µM | 0.76 µM |
| Cc1ccc(C)c(C(=O)N2N(C3C4CC5CC(C4)CC3C5)C(=O)C2(C)C)c1 (stereo not shown) [Example 161, 1-[(2,5-dimethylphenyl)carbonyl]-4,4-dimethyl-2-(adamantan-2-yl)-1,2-diazetidin-3-one] | > 30 µM | 0.5 µM | 0.23 µM |
| COCOc1ccccc1N1N(C2C3CC4CC(C3)CC2C4)C(=O)C1(C)C (stereo not shown) [Example 218, 1-[2-(methoxymethoxy)phenyl]-4,4-dimethyl-2-(adamantan-2-yl)-1,2-diazetidin-3-one] | > 30 µM | 0.81 µM | 0.57 µM |
| CC1(C)C(=O)N(C2C3CC4CC(C3)CC2C4)N1c1ccccc1 (stereo not shown) [Example 181, 4,4-dimethyl-1-phenyl-2-(adamantan-2-yl)-1,2-diazetidin-3-one] | 3 to 30 µM | 0.062 µM | – |
| CC1(C)C(=O)N(C2C3CC4CC(C3)CC2C4)N1c1ccc(O)cc1 (stereo not shown) [Example 215, 4,4-dimethyl-1-(4-hydroxyphenyl)-2-(adamantan-2-yl)-1,2-diazetidin-3-one] | 4.5 µM | 0.023 µM | 0.54 µM |
| CC1(C)C(=O)N(C2C3CC4CC(C3)CC2C4)N1C(=O)c1ccccc1Br (stereo not shown) [Example 120, 1-[(2-bromophenyl)carbonyl]-4,4-dimethyl-2-(adamantan-2-yl)-1,2-diazetidin-3-one] | > 30 µM | 0.27 µM | – |
| COc1ccc(N2N(C3C4CC5CC(C4)CC3C5)C(=O)C2(C)C)cc1 (stereo not shown) [Example 203, 1-(4-methoxyphenyl)-4,4-dimethyl-2-(adamantan-2-yl)-1,2-diazetidin-3-one] | > 30 µM | 0.026 µM | – |
| CC1(C)C(=O)N([C@H]2C3CC4CC2C[C@@](O)(C4)C3)N1c1ccc2ccccc2c1 [Example 248, cis-2-(5-hydroxyadamantan-2-yl)-4,4-dimethyl-1-(naphthalen-2-yl)-1,2-diazetidin-3-one] | 3 to 30 µM | 0.028 µM | – |
| CC1(C)C(=O)N(C2C3CC4CC(C3)CC2C4)N1/C=C/c1ccccc1 (stereo not shown) [Example 265, 4,4-dimethyl-1-[(E)-2-phenylethenyl]-2-(adamantan-2-yl)-1,2-diazetidin-3-one] | 19 µM | 0.036 µM | – |

Now from value to molecule:

| IC50 [1] | IC50 [2] | IC50 [3] | SMILES |
| --- | --- | --- | --- |
| 3.2 µM | 0.023 µM | 0.13 µM | CC1(C)C(=O)N(C2C3CC4CC(C3)CC2C4)N1Cc1cc(F)ccc1Cl (stereo not shown) [Example 41, 1-(2-chloro-5-fluorobenzyl)-4,4-dimethyl-2-(adamantan-2-yl)-1,2-diazetidin-3-one] |
| 5.5 µM | 0.019 µM | 0.087 µM | CC1(C)C(=O)N(C2CCCCCCC2)N1c1cccc2ccccc12 [Example 222, 2-cyclooctyl-4,4-dimethyl-1-(naphthalen-1-yl)-1,2-diazetidin-3-one] |
| 9.5 µM | 0.078 µM | 0.16 µM | CC1(C)C(=O)N(C2C3CC4CC(C3)CC2C4)N1Cc1ccc(Cl)cc1Cl (stereo not shown) [Example 52, 1-(2,4-dichlorobenzyl)-4,4-dimethyl-2-(adamantan-2-yl)-1,2-diazetidin-3-one] |
| 3 µM | 0.015 µM | 0.04 µM | CC1(C)C(=O)N(C2C3CC4CC(C3)CC2C4)N1Cc1ccccc1Br (stereo not shown) [Example 39, 1-(2-bromobenzyl)-4,4-dimethyl-2-(adamantan-2-yl)-1,2-diazetidin-3-one] |
| 3 to 30 µM | 0.023 µM | 0.95 µM | CC1(C)C(=O)N([C@H]2C3CC4CC2C[C@](O)(C4)C3)N1c1ccccc1Cl [Example 227, trans-1-(2-chlorophenyl)-2-(5-hydroxyadamantan-2-yl)-4,4-dimethyl-1,2-diazetidin-3-one] |
| 3 to 30 µM | 0.02 µM | – | CC1(C)C(=O)N(C2C3CC4CC(C3)CC2C4)N1c1ccc(Cl)cc1Cl (stereo not shown) [Example 208, 1-(2,4-dichlorophenyl)-4,4-dimethyl-2-(adamantan-2-yl)-1,2-diazetidin-3-one] |
| 1.1 µM | 0.0082 µM | 0.15 µM | CSc1ccccc1CN1N(C2C3CC4CC(C3)CC2C4)C(=O)C1(C)C (stereo not shown) [Example 60, 4,4-dimethyl-1-[2-(methylthio)benzyl]-2-(adamantan-2-yl)-1,2-diazetidin-3-one] |
| 2 µM | 0.016 µM | 0.092 µM | CC1(C)C(=O)N(C2CCCCCCC2)N1Cc1cc(F)ccc1Cl [Example 77, 1-(2-chloro-5-fluorobenzyl)-2-cyclooctyl-4,4-dimethyl-1,2-diazetidin-3-one] |
| 3 to 30 µM | 0.093 µM | – | CC1(C)C(=O)N(C2C3CC4CC(C3)CC2C4)N1c1cccc(Cl)c1 (stereo not shown) [Example 190, 1-(3-chlorophenyl)-4,4-dimethyl-2-(adamantan-2-yl)-1,2-diazetidin-3-one] |
| > 30 µM | 0.088 µM | – | CC1(C)C(=O)N([C@H]2C3CC4CC2C[C@](O)(C4)C3)N1c1cccc(Cl)c1Cl [Example 231, trans-1-(2,3-dichlorophenyl)-2-(5-hydroxyadamantan-2-yl)-4,4-dimethyl-1,2-diazetidin-3-one] |
| 3 to 30 µM | 0.03 µM | 0.61 µM | CC1(C)C(=O)N([C@H]2C3CC4CC2C[C@](Cl)(C4)C3)N1c1cccc(Cl)c1Cl [Example 251, trans-2-(5-chloroadamantan-2-yl)-1-(2,3-dichlorophenyl)-4,4-dimethyl-1,2-diazetidin-3-one] |
| 6.6 µM | 0.042 µM | 0.16 µM | CCc1ccccc1CN1N(C2C3CC4CC(C3)CC2C4)C(=O)C1(C)C (stereo not shown) [Example 50, 1-(2-ethylbenzyl)-4,4-dimethyl-2-(adamantan-2-yl)-1,2-diazetidin-3-one] |
| 3 to 30 µM | 0.022 µM | – | CC1(C)C(=O)N(C2C3CC4CC(C3)CC2C4)N1c1ccccc1Cl (stereo not shown) [Example 189, 1-(2-chlorophenyl)-4,4-dimethyl-2-(adamantan-2-yl)-1,2-diazetidin-3-one] |
| > 30 µM | 0.72 µM | – | CC1(C)C(=O)N(C2C3CC4CC(C3)CC2C4)N1C(=O)c1ccccc1F (stereo not shown) [Example 119, 1-[(2-fluorophenyl)carbonyl]-4,4-dimethyl-2-(adamantan-2-yl)-1,2-diazetidin-3-one] |
